# Data taken from patent publication US20180092908A1, “SMALL MOLECULE OXIDIZERS OF PDI AND THEIR USE” (THE TRUSTEES OF COLUMBIA UNIVERSITY IN THE CITY OF NEW YORK, priority 2015, published 2018).
# Read-outs that look alike come from different tables or passages of the source.
# Tests used:
# [1] = system: PC12 mHTT^Q103 cells; assay: Rescue of PC12 cells from mHTT^Q103 induced cell death (Alamar blue viability); format: cell-based; settings: Rattus norvegicus, PC-12; Table 5; read-out: Cell Viability Assay EC50
# Description: PC12 mHTT^Q103 cells were a gift from Erik S. Schweitzer (UCLA School of Medicine, Los Angeles, Calif.). These cells are stably transfected with the first exon of human HTT gene containing the pathogenic 103 CAG/CAA repeat expansion, under the control of the ecdysteroid promoter (Aiken et al., 2004). The plasmid also contains a Bombyx mori ecdysone receptor gene fused at N-terminal with VP16 transactivation domain (Suhr et al., 1998; Vilaboa et al., 2011). Addition of the ecdysone analog, tebufenozide, to the cell culture medium is used to initiate the transcription of mutant HTT (Aiken et al., 2004).
# PC12 mHTT^Q103 cells were cultured in DMEM containing 4.5 g/I glucose, 25 mM HEPES, sodium pyruvate, and no L-glutamine (Mediatech, cat. no. 15-018-CV), supplemented with 10% (v/v) Cosmic Calf serum, 2 mM L-glutamine, 100 units/mL of penicillin-streptomycin, and 0.5 mg/ml active geneticin. Cells were grown at 37° C., 9.5% CO2, and the medium was replaced with fresh medium every 2-3 days. To induce mHTT^Q103 expression for experiments, tebufenozide, a gift from Lynne Moore and Fred H. Gage (The Salk Institute for Biological Studies, La Jolla, Calif.), was added to the medium at 200 nM final concentration from 1 mM stock in 85% ethanol.
# LOC mother plates with compounds at 4 mg/ml were thawed and spun down (1000 rpm, 20° C., 1 min) prior to use. Biomek FX (Beckman Coulter) robotic liquid dispenser was used to handle all liquid transferring and mixing. […] Two fold serial dilution was performed across five daughter plates by transferring 50 μl of compounds (at […]) from the D1 plate into 50 μl of PC12 medium in daughter plate D2, mixing, and then repeating the process for the remaining three plates. Daughter plate D1 with compounds at […], daughter plate D3 with compounds at 20 μl/ml and daughter plate D5 with compounds at 5 μl/ml were then used for the screen. Assay plates were set up by seeding tebufenozide-induced PC12 mHTT^Q103 cells into 384-well black, clear-bottom plates (Corning Inc. cat. no. 3712) at a density of 7,500 cells per well in 57 μl PC12 medium without geneticin. Three microliters of compound from the daughter plates (D1, D3, and D5) were added to the assay plates for a final compound concentration of 4 μl/ml, 1 μl/ml, and 0.25 μl/ml. Four wells containing uninduced PC12 mHTT^Q103 cells and four wells containing medium only, were also included on each plate as controls. The assay plates were incubated at 37° C., 9.5% CO2 for 48 hours. Twenty microliters of 40% Alamar blue (Life Technologies cat. no. DAL1100) solution in PC12 medium was added to each well (1:10 final dilution) and the plates were incubated for an additional 12-24 hours at 37° C., 9.5% CO2. Alamar blue fluorescence was read on a fluorescence plate reader (PerkinElmer Victor3) with 530 nm excitation filter and 590 nm emission filter. Each compound concentration was tested in triplicate.
# The follow-up testing of primary screen hits was performed in a similar way. Fresh powder stocks of primary hits were re-ordered from vendors, dissolved in DMSO and tested in a two-fold serial dilution across 10 wells in both tebufenozide-induced and uninduced PC12 mHTT^Q103 cells. Dose-response curves were plotted as mean±SD and fit to either four-parameter sigmoidal (for uninduced cells) or bell-shaped (induced) function using Prism (GraphPad Software).
# A cascade of two assays was used, involving both a phenotypic high-throughput screening (HTS) assay and an in vitro PDI reductase assay, to identify neuroprotective PDI-inhibiting compounds. […] Alamar blue was used as a fluorescent readout for viability after 48 hours of compound treatment and mHTT^Q103 induction. […] All the candidate hit compounds were re-tested in a two-fold dilution series.
# [2] = biological target: T1, recombinant catalytic a domain of human PDI A1 (PDIa) (Homo sapiens, UniProt P07237); assay: Insulin aggregation assay (PDIa reductase activity); format: biochemical; settings: Table 5
# T1 construct: made in house; host or cells: Escherichia coli BL21-Gold (DE3)
# Description: In this insulin aggregation assay (Xu et al., 2012; Jasuja et al., 2012; Khan et al., 2011; Smith et al., 2004), PDIa reduced the two disulfide bonds between the α- and β-chains of insulin, causing the β-chain to aggregate and precipitate, resulting in an increase in absorbance at 650 nm.
# To investigate the mode of binding further and to determine whether the binding was reversible or irreversible, the recovery of enzymatic activity of PDIa after dilution of pre-formed concentrated PDIa-LOC14 complexes was analyzed. LOC14 (750 μM) was incubated with a concentrated solution of PDIa (500 μM). The mixture was then diluted 100-fold and PDI's enzymatic activity was measured in the insulin reduction assay. As a control, the same procedure was also performed on the sample containing an irreversible inhibitor, 16F16 (16F16 at 750 μM and PDIa at 500 μM). […] This illustrated that unlike 16F16, LOC14 binding to PDIa is reversible.
# [3] = biological target: T2, human catalytic PDI A1 a domain (PDIa) (Homo sapiens, UniProt P07237); assay: Isothermal titration calorimetry (ITC) binding to PDIa; settings: PDIa
# T2 construct: made in house; host or cells: Escherichia coli BL21-Gold (DE3)
# Procedure: All ITC experiments were carried out at 25° C. on MicoCal Auto-ITC200 system (GE Healthcare). Reduced PDIa was dialyzed into ITC buffer (20 mM sodium phosphate buffer pH 7.8) and loaded into a sample cell at 40 μM concentration. The compound solution was loaded into a syringe at 400 μM in the same ITC buffer with a final DMSO concentration at 0.4% (v/v). ITC titration experiments were carried out at 25° C. with 19 injections, 2 μl per injection, and 180 seconds between each injection. The reference cell power was set to 5 μcal/sec. A control experiment was performed for each compound, where each compound was titrated into buffer to account for heat released due to dilution. This background was subtracted from test data before a final dissociation constant was obtained. Data were analyzed using a one-site binding model in Origin 7.1 software. […] Gibbs free energy, ΔG, was calculated from equation ΔG=ΔH−TΔS. All other parameters, Ka, n, ΔH, ΔS, were determined directly from the titration data.
# For ITC experiments with 16F16 pre-treatment, 40 μM PDIa (after dialysis into ITC buffer) was treated with 200 μM 16F16 for 12-15 hours at 4° C. Next day the whole solution was loaded into the sample cell. LOC14 at 400 μM in ITC buffer was loaded into syringe and titrated into PDIa+16F16 loaded cell. For control experiments, ITC buffer with 200 μM 16F16 was used in the cell, while 400 μM LOC14 in ITC buffer was used in the syringe.
# The binding mode of LOC14 to PDIa was next investigated using isothermal titration calorimetry (ITC). ITC measures the heat released or absorbed during a biomolecular interaction. It is a direct analytical method for determining the binding and thermodynamic parameters, such as reaction stoichiometry (n), binding constants (Ka and Kd), enthalpy (ΔH), entropy (ΔS), and free energy (ΔG) of an interaction.
# [4] = Solubility; settings: DMSO, Table 5
# [5] = physchem; settings: DMSO, organic solvent or mixture
# [6] = Table 5, read-out: ITC Assay KD
# T2 sequence (P07237 with tags, fused parts or gaps): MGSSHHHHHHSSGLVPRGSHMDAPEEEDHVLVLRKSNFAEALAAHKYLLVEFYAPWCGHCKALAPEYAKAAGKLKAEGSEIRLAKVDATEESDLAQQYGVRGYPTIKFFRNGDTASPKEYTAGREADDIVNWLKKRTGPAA
# T1 sequence (P07237 with tags, fused parts or gaps): as above
Structure (SMILES),Insulin Assay (either active or inactive) [2],"Kd [3, 6]",ITC Assay KD ([3]; Table 5),solubility [5],EC50 [1],"Kd ([3]; Table 4, read-out: ITC KD)",Solubility in DMSO [4]
O=c1c2ccccc2sn1CN1CCCCC1 [LC-1],Active,107 nM,–,–,459 nM,107 nM,100 mM in DMSO
O=c1c2ccccc2sn1CN1CCSCC1 [LC-3],Active,91.7 nM,–,–,463 nM,91.7 nM,100 mM in DMSO
O=c1c2ccccc2sn1CN1CCC(O)CC1 [LC-7],Active,216 nM,–,–,441 nM,216 nM,100 mM in DMSO
CN1CCN(Cn2sc3ccccc3c2=O)CC1 [LC-2],Active,91.7 nM,–,–,415 nM,134 nM,100 mM in DMSO
CC(C)(C)OC(=O)N1CCN(Cn2sc3ccccc3c2=O)CC1 [LC-10],Active,123 nM,–,–,581 nM,123 nM,100 mM in DMSO
O=c1[nH]sc2c(F)cccc12 [LC-40],Active,–,KD = N/A irreversible or not active,–,9320 nM,–,–
Cc1cc(C)c2c(=O)ssc2n1 [LC-50],Active,–,–,–,5180 nM,–,100 mM in DMSO

# Now from value to compound, other results behind:
Insulin Assay (either active or inactive) [2],"Kd [3, 6]",ITC Assay KD ([3]; Table 5),solubility [5],Structure (SMILES),EC50 [1],"Kd ([3]; Table 4, read-out: ITC KD)",Solubility in DMSO [4]
not active,–,KD = N/A irreversible or not active,30 mM,O=C(C1CC1)N1CCN(C(=O)n2sc3ccccc3c2=O)CC1 [LC-14],> 50000 nM,–,–
Active,114 nM,–,20 mM,"O=C(C1CC1)N1CCN(Cn2sc3ccc(Cl)cc3c2=O)CC1 [LC-15, 5-chloro-2-((4-(cyclopropanecarbonyl)piperazin-1-yl)methyl)benzo[d]isothiazol-3(2H)-one]",467 nM,114 nM,–
Active,160 nM,–,–,"O=c1c2ccccc2sn1Cn1sc2ccccc2c1=O [LC-17, 2,2′-methylenebis(benzo[d]isothiazol-3(2H)-one)]",229 nM,–,100 mM in DMSO
not active,–,KD = N/A irreversible or not active,30 mM,O=c1c2ccccc2sn1-c1ccc(N2CCOCC2)cc1 [LC-27],1830 nM,–,–
not active,–,KD = N/A irreversible or not,–,O=C(c1ccccc1)n1sc2ccccc2c1=O [LC-11],> 50000 nM,–,–
